According to patent US11389536B2 (priority 2015, dated 2022):
Where two headings read alike, the source gives them in different places.

Key:
[1] = tested on: lungs of athymic nude mice; experiment: Lung histology for radiation-induced pneumonitis and fibrosis (H&E, Masson's trichrome); format: in vivo; details: irradiated lungs
Description: For the in vivo studies, athymic nude mice are housed in the specific pathogen-free (SPF) Cancer Research Institute animal facility which exceeds the national requirements for animal care, with two conventional mouse rooms, two nude mouse rooms, and one quarantine room. Radiation was administered using an IC160 X-ray cell culture and small animal irradiation system (Kimtron Inc., Woodbury, Conn., USA) located inside the animal facility. Nine weeks post radiation, the mice were sacrificed and the lungs were harvested and processed for hematoxylin and eosin (H&E) staining. For immunohistochemistry and hematoxylin and eosin-staining procedures, one part of the tumor tissue is formalin-fixed and paraffin-embedded and another part embedded in OCT compound (Miles, Inc., Elkhart, Ind.), rapidly frozen in liquid nitrogen, and stored at […] for sectioning. Immunofluorescence microscopy is performed using a 20× objective on an epifluorescence microscope equipped with narrow bandpass excitation filters mounted in a filter wheel (Ludl Electronic Products, Hawthorne, N.Y.).
To determine the degree of radiation-induced pneumonitis, the lungs were harvested and processed for histology and H&E staining (FIGS. 23A-23D) and the amount of fibrosis and collagen deposition, indicative of chronic lung conditions, was measured using Masson's trichrome stain (FIGS. 23E-23H).

[2] = tested on: non-tumor-bearing athymic nude mice
Description: Non-tumor-bearing athymic nude mice were exposed to fractionated doses of 30 Gy radiation (weekly administration of 5 Gy) in the presence or absence of twice weekly intravenous (i.v.) injections of Ce02 or intraperitoneal (i.p.) injections of Amifostine 30 min prior to radiation. Amifostine is a free radical scavenger. […] Treatments continued for […] for a total dose of 30 Gy radiation. The mice were killed and necropsied only when they became moribund or the experiment was terminated. The weight and mortality of each mouse was measured throughout the experiment and median and percent survival was determined, as shown in FIG. 22E.

SMILES: NCCCNCCSP(=O)(O)O [Amifostine]
- fibrosis and collagen deposition (Masson's Trichrome stain) [1]: fibrosis and collagen deposition were common
- median survival time ([2]; agent alone, no radiation (Amifostine 150 mg/kg i.p.)): 119 days
- tolerability / toxicity to mice ([2]; athymic nude mice): highly toxic to the mice
- median survival time ([2]; combination with radiation (5 Gy fractions, total 30 Gy), CONPs 15 nM i.v. twice weekly, Amifostine i.p. 30 min prior to radiation): 81 days
